# Measured values: the RepoRT retention time repository (doi:10.1007/s00216-013-6954-6)
# Assay: RP, Waters ACQUITY UPLC HSS T3, 100 × 1 mm, 1.8 µm; A: water + 0.1% formic acid, pH 3; B: acetonitrile + 0.1% formic acid, pH 3; gradient (min/%B) 0/5 1/5 16/95 18/95 20/5
# Conditions: stereoisomer not certain
row,Structure (SMILES),LC retention time [min]
1,COc1cc2ccc(=O)oc2cc1OC1OC(CO)C(O)C(O)C1O (stereo not given) [Scopolin],3.3
2,CC(CCC(=O)O)C1CCC2C3CCC4CC(O)CCC4(C)C3CC(O)C12C (stereo not given) [Deoxycholic acid],10.7
3,Cc1cc2nc3c(=O)[nH]c(=O)nc-3n(CC(O)C(O)C(O)CO)c2cc1C (stereo not given) [Riboflavin],3.92
4,Cn1c(=O)c2c(ncn2C)n(C)c1=O [Caffeine],3.46
5,O=c1cc[nH]c(=O)[nH]1 [Uracil],0.638
6,Nc1nc2c(ncn2C2OC(CO)C(O)C2O)c(=O)[nH]1 (stereo not given) [Guanosine],1.1
7,COc1cc(C=CCO)cc(OC)c1OC1OC(CO)C(O)C(O)C1O (stereo not given) [Syringin],3.2
8,O=C(O)CNC(=O)c1ccccc1 [Hippuric acid],3.39
9,O=C(O)c1c[nH]c2ccccc12 [Indole-3-carboxylic acid (I3CO2H)],4.7
10,Nc1ccc(C(=O)O)cc1 [paba],1.95
11,CSCCCCCCCCC(N)C(=O)O (stereo not given) [Hexahomo-Met],5.4
12,O=C(O)CCCC(=O)O [Glutaric acid],1.14
13,Nc1ncnc2c1ncn2C1CC(O)C(CO)O1 (stereo not given),0.8
14,O=c1[nH]cnc2c1ncn2C1OC(CO)C(O)C1O (stereo not given) [Inosine],0.839
15,O=C(O)CCCCCCCC(=O)O [Azelaic acid],5.35
16,O=c1ccc2cc(OC3OC(CO)C(O)C(O)C3O)c(O)cc2o1 (stereo not given) [Esculin],2.9
17,CCCCCCCCCCCCCCCC(=O)OCC(O)COP(=O)([O-])OCC[N+](C)(C)C (stereo not given) [lysoPC(16:0/0:0)],11.6
18,COC1C(O)C(CO)OC1n1cnc2c(N)ncnc21 (stereo not given),1.1
19,COc1cccc2[nH]cc(CN)c12 [4-MeO-I3CH2NH2],3.2
20,NCCS(=O)(=O)O [Taurine],0.446
21,O=c1[nH]c(=O)c2[nH]c(=O)[nH]c2[nH]1 [Uric acid],0.643
22,O=C(O)Cc1ccccc1 [Phenylacetic acid],3.6
23,O=C(O)C(O)Cc1ccccc1 (stereo not given) [phenyllactic acid],4.37
24,COn1cc(CN)c2ccccc21 [1-MeO-I3CH2NH2],3.7
25,O=C(O)CCCCCC(=O)O [Pimelic acid],3.47
26,COc1cc(CC2COC(c3ccc(O)c(OC)c3)C2CO)ccc1O (stereo not given) [Lariciresinol],5.6
27,CS(=O)CCCCCCCCN=C=S (stereo not drawn) [8-MeSO-Octyl-NCS],8.1
28,NCc1c[nH]c2ccccc12 [Indol-3-ylmethylamine (I3CH2NH2)],1.8
29,COc1cc(C=CCO)ccc1OC1OC(CO)C(O)C(O)C1O (stereo not given) [Coniferin],3

# Now from value to compound:
row,LC retention time [min],Structure (SMILES)
1,0.795,CC(C)CC(N)C(=O)O (stereo not given) [Leucine]
2,3.8,CCC(C)C(NC(=O)C(N)Cc1ccccc1)C(=O)O (stereo not drawn) [H-Phe-Ile-OH]
3,2.8,CC(C)CC(N)C(=O)NC(Cc1ccc(O)cc1)C(=O)O (stereo not drawn) [H-Leu-Tyr-OH]
4,0.687,O=C1CCC(C(=O)O)N1 (stereo not given) [Pyroglutamic acid]
5,2.6,CC(C)CC(N)C(=O)N1CCCC1C(=O)O (stereo not drawn) [H-Leu-Pro-OH]
6,0.482,O=C(O)C1CCCN1 (stereo not given) [Proline]
7,3.1,"O=C(O)C1Cc2c([nH]c3ccccc23)CN1 (stereo not given) [3-Carboxy-1,2,3,4-tetrahydro-2-carboline]"
8,0.413,NC(N)=NCCCC(N)C(=O)O (stereo not given) [Arginine]
9,3.4,CCC(C)C(N)C(=O)NC(CC(C)C)C(=O)O (stereo not drawn) [H-Ile-Leu-OH]
10,4.1,CC(C)CC(NC(=O)C(N)Cc1ccccc1)C(=O)O (stereo not drawn) [H-Phe-Leu-OH]
11,3.6,CC(C)CC(N)C(=O)NC(CC(C)C)C(=O)O (stereo not drawn) [H-Leu-Leu-OH]
12,7.92,CC(CCC(=O)NCC(=O)O)C1CCC2C3C(O)CC4CC(O)CCC4(C)C3CC(O)C12C (stereo not given) [Glycocholic acid]
13,3.9,CCC(C)C(N)C(=O)NC(Cc1ccccc1)C(=O)O (stereo not drawn) [H-Ile-Phe-OH]
14,0.457,NC(=O)NCCCC(N)C(=O)O (stereo not given) [Citrulline]
15,10.5,CC(CCC(=O)O)C1CCC2C3C(O)CC4CC(O)CCC4(C)C3CCC12C (stereo not given) [Chenodeoxycholic acid]
16,3.3,CCC(C)C(NC(=O)C(N)CC(C)C)C(=O)O (stereo not drawn) [H-Leu-Ile-OH]
17,0.733,CC(C(=O)O)C(=O)O [Methylmalonic acid]
18,6.56,"CC12CCC(=O)C=C1CCC1C2C(O)CC2(C)C1CCC2(O)C(=O)CO (stereo not given) [hydrocortisone, cortisol]"
19,2.7,CC(C)CC(NC(=O)C(N)C(C)C)C(=O)O (stereo not drawn) [H-Val-Leu-OH]

# Assay: RP, Waters ACQUITY UPLC HSS T3, 150 × 2.1 mm, 1.8 µm; A: water + 0.1% formic acid; B: acetonitrile + 0.1% formic acid; gradient (min/%B) 0/5 1/5 16/95 18/95
# Conditions: stereoisomer not certain
row,LC retention time [min],Structure (SMILES)
1,0.8,Nc1ncnc2c1ncn2C1CC(O)C(CO)O1 (stereo not given)
2,1.1,COC1C(O)C(CO)OC1n1cnc2c(N)ncnc21 (stereo not given)
